Data taken from US20230002397A1, “SMALL MOLECULE DEGRADERS OF HELIOS AND METODS OF USE” (DANA-FARBER CANCER INSTITUTE, INC., priority 2019, published 2023).

Biological target: T1, IKZF2 (Homo sapiens, UniProt Q96SW2+Q9UKS7)
T1 construct: CRISPR/Cas9—mediated insertion of the HiBiT peptide tag (Promega™) to the N-terminus of the IKZF2 gene locus; endogenous in cells; host or cells: MOLT4 cells, with CRISPR/Cas9 knock-in of HiBiT at the endogenous IKZF2 locus
Test: HiBit-IKZF2 assay (HiBiT-Helios degradation in MOLT4 cells)
Type: cell-based
Conditions: for Dmax: MOLT-4, extent of degradation from highest to lowest concentration, 10 μM to 0.00026 μM, read-out: Dmax; for DC50: concentration at which 50% of HiBiT-Helios degradation was achieved
Description: The HiBiT protein tagging system was applied to MOLT4 cells via a CRISPR/Cas9—mediated insertion of the HiBiT peptide tag (Promega™) to the N-terminus of the IKZF2 gene locus (Neon™ Transfection System). The resulting HiBiT-Helios stable cell line was treated with the following compounds in triplicates following a 13-point concentration scheme ranging from 10 μM to 0.00026 μM. At the indicated timepoints, the Nano-Glo® HiBiT Lytic Detection System (Promega™) was utilized for detecting bioluminescence of the HiBiT tag in treated cells: abundance of the tag is proportionate to the level of luminescence. Following normalization to DMSO, dose-response curves were plotted (GraphPad Prism) to determine the concentration points at which 50% of HiBiT-Helios degradation was achieved by each compound. The extent of degradation (range of luminescence) from the highest to lowest concentration points was calculated to determine the Dmax.

T1 sequence (Q9UKS7 whole entry): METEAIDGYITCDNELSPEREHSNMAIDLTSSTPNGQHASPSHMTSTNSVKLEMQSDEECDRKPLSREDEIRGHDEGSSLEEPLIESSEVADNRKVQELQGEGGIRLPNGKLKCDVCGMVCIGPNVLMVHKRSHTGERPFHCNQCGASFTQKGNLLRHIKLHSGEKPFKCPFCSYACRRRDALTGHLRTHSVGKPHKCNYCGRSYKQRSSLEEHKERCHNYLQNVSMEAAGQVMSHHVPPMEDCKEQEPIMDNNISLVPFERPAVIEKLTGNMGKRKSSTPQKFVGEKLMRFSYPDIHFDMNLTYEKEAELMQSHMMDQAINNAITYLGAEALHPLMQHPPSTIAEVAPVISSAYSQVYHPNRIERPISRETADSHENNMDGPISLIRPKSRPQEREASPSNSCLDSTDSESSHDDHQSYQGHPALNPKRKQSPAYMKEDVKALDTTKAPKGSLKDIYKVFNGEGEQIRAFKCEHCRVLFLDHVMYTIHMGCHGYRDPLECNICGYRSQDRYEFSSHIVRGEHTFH
T1 sequence (Q96SW2 whole entry): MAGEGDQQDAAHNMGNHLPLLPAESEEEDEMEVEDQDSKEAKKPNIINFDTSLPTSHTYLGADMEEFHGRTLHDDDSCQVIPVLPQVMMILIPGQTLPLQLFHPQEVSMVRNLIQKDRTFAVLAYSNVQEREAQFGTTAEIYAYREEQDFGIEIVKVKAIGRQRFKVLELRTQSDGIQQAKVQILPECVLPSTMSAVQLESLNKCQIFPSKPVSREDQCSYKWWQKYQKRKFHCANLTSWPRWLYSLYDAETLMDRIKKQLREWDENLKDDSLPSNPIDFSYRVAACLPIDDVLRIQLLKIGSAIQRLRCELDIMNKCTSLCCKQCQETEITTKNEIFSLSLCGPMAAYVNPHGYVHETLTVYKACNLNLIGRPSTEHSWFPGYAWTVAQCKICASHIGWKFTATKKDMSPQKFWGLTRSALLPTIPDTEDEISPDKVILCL
T1 sequence (Q16531 whole entry partner): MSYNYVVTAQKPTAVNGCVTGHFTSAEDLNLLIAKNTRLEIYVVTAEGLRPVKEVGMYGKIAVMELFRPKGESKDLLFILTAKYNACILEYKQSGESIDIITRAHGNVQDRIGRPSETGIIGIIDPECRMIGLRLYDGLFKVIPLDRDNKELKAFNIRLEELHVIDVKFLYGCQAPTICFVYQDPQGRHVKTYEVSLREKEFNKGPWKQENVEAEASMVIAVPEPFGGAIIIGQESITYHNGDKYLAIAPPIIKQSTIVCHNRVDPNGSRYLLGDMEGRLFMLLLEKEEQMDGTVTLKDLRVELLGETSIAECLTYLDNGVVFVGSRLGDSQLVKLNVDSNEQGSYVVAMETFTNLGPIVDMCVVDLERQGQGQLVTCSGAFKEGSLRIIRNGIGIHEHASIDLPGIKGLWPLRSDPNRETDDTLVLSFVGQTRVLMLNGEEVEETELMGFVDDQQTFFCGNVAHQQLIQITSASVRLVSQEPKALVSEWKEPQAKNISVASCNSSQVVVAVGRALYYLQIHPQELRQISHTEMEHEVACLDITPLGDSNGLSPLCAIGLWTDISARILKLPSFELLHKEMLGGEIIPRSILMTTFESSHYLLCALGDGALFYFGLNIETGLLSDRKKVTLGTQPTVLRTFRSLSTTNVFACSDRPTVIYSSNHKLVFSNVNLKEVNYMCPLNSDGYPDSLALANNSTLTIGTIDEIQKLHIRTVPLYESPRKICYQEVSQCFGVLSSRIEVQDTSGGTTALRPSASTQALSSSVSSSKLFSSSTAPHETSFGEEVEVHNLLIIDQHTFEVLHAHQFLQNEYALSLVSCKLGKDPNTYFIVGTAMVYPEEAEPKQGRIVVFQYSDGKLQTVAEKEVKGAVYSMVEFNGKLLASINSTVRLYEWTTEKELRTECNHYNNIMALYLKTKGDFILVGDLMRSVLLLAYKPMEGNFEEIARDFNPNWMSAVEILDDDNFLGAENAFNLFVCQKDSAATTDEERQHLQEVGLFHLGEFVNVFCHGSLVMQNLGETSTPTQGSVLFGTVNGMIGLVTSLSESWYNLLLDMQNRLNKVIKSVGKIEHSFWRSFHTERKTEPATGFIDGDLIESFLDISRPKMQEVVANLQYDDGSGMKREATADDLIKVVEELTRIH

Dmax [%]	DC50 [nM]	Compound
50 to 70	< 10	CP(C)(=O)c1ccccc1Nc1cccc(CN2CCC(c3ccc4c(c3)CN(C3CCC(=O)NC3=O)C4=O)CC2)c1 (centres unmarked) [Compound 134]
50 to 70	30 to 150	O=C1CCC(N2Cc3cc(C4CCN(Cc5ccc6c(c5)C(=O)N(c5ncccn5)CC6)CC4)ccc3C2=O)C(=O)N1 (centres unmarked) [Compound 182]
50 to 70	30 to 150	O=C1CCC(N2Cc3cc(C4CCN(Cc5ccc(C(=O)Nc6ccccc6)cc5)CC4)ccc3C2=O)C(=O)N1 (centres unmarked) [Compound 158]
50 to 70	< 10	CN(c1ccccc1)S(=O)(=O)c1ccc(CN2CCC(c3ccc4c(c3)CN(C3CCC(=O)NC3=O)C4=O)CC2)cc1 (centres unmarked) [Compound 92]
50 to 70	10 to 30	CN(c1cccc(CN2CCC(c3ccc4c(c3)CN(C3CCC(=O)NC3=O)C4=O)CC2)c1)c1ncccn1 (centres unmarked) [Compound 232]
50 to 70	30 to 150	O=C1CCC(N2Cc3cc(C4CCN(Cc5cnc(Nc6ccccc6)nc5)CC4)ccc3C2=O)C(=O)N1 (centres unmarked) [Compound 139]
50 to 70	30 to 150	O=C1CCC(N2Cc3cc(C4CCN(Cc5cccc(Nc6ncc(F)cn6)c5F)CC4)ccc3C2=O)C(=O)N1 (centres unmarked) [Compound 230]
50 to 70	30 to 150	O=C1CCC(N2Cc3cc(C4CCN(Cc5ccc(N6CCCC6=O)cc5)CC4)ccc3C2=O)C(=O)N1 (centres unmarked) [Compound 147]
> 70	< 10	O=C1CCC(N2Cc3cc(C4CCN(Cc5ccc6c(c5)C(=O)N(c5ccns5)C6)CC4)ccc3C2=O)C(=O)N1 (centres unmarked) [Compound 224]
50 to 70	< 10	Cc1ccnc(Nc2cccc(CN3CCC(c4ccc5c(c4)CN(C4CCC(=O)NC4=O)C5=O)CC3)c2F)n1 (centres unmarked) [Compound 231]
30 to 50	30 to 150	O=C1CCC(N2Cc3cc(C4(O)CCN(Cc5ccccc5)C4)ccc3C2=O)C(=O)N1 (centres unmarked) [Compound 210]
50 to 70	10 to 30	O=C1CCC(N2Cc3cc(C4CCN(Cc5cccc(Nc6cccnn6)c5)CC4)ccc3C2=O)C(=O)N1 (centres unmarked) [Compound 127]
50 to 70	30 to 150	O=C1CCC(N2Cc3cc(C4CCN(Cc5cccc(S(=O)(=O)N6CCOc7ccccc76)c5)CC4)ccc3C2=O)C(=O)N1 (centres unmarked) [Compound 84]
50 to 70	< 10	O=C1CCC(N2Cc3cc(C4CCN(Cc5cccc(N6Cc7ccccc7C6=O)c5)CC4)ccc3C2=O)C(=O)N1 (centres unmarked) [Compound 51]
30 to 50	10 to 30	O=C1CCC(N2Cc3cc(C4CCN(Cc5cccc(Nc6ncc(F)cn6)c5)CC4)ccc3C2=O)C(=O)N1 (centres unmarked) [Compound 226]
30 to 50	30 to 150	O=C1CCC(N2Cc3cc(C4CCN(Cc5cc(Nc6ccccc6)ncn5)CC4)ccc3C2=O)C(=O)N1 (centres unmarked) [Compound 116]
50 to 70	< 10	O=C1CCC(N2Cc3cc(C4CCN(Cc5ccc(S(=O)(=O)N(c6ccccc6)C6COC6)cc5)CC4)ccc3C2=O)C(=O)N1 (centres unmarked) [Compound 165]
30 to 50	10 to 30	O=C1CCC(N2Cc3cc(C4CCN(Cc5ccnc(Nc6ccccc6)n5)CC4)ccc3C2=O)C(=O)N1 (centres unmarked) [Compound 122]
50 to 70	< 10	O=C1CCC(N2Cc3cc(C4CCN(Cc5cccc(N6Cc7ncccc7C6=O)c5)CC4)ccc3C2=O)C(=O)N1 (centres unmarked) [Compound 125]

The remaining lines, values behind:

Compound	Dmax [%]	DC50 [nM]
O=C1CCC(N2Cc3cc(C4CCN(Cc5ccnc(Nc6ccccc6)c5F)CC4)ccc3C2=O)C(=O)N1 (centres unmarked) [Compound 126]	50 to 70	10 to 30
O=C1CCC(N2Cc3cc(C4CCN(Cc5ccccc5C(=O)Nc5ccccc5)CC4)ccc3C2=O)C(=O)N1 (centres unmarked) [Compound 144]	50 to 70	10 to 30
O=C1CCC(N2Cc3cc(C4(O)CCN(Cc5ccc6c(c5)OCCCO6)CC4)ccc3C2=O)C(=O)N1 (centres unmarked) [Compound 272]	> 70	< 10
CC(c1ccccc1)N1CCC(O)(c2ccc3c(c2)CN(C2CCC(=O)NC2=O)C3=O)CC1 (centres unmarked) [Compound 269]	> 70	< 10
O=C1CCC(N2Cc3cc(C4(O)CCN(Cc5ccc(C6CC6)cc5)CC4)ccc3C2=O)C(=O)N1 (centres unmarked) [Compound 270]	> 70	< 10
O=C1CCC(N2Cc3cc(C4(O)CCN(Cc5ccccc5Oc5ccccc5)CC4)ccc3C2=O)C(=O)N1 (centres unmarked) [Compound 252]	> 70	< 10
Cc1ccc(CN2CCC(O)(c3ccc4c(c3)CN(C3CCC(=O)NC3=O)C4=O)CC2)cc1 (centres unmarked) [Compound 266]	> 70	< 10
O=C1CCC(N2Cc3cc(C4CCN(Cc5cccc(Nc6ccccn6)c5)CC4)ccc3C2=O)C(=O)N1 (centres unmarked) [Compound 42, 3-(1-oxo-5-(1-(3-(pyridin-2-ylamino)benzyl)piperidin-4-yl)isoindolin-2-yl)piperidine-2,6-dione]	50 to 70	< 10
O=C1CCC(N2Cc3cc(C4CCN(Cc5cccc(Nc6ncccn6)c5)CC4)ccc3C2=O)C(=O)N1 (centres unmarked) [Compound 149]	50 to 70	< 10
O=C1CCC(N2Cc3cc(C4(O)CCN(Cc5cnc(-c6ccccc6)s5)CC4)ccc3C2=O)C(=O)N1 (centres unmarked) [Compound 240]	> 70	< 10
O=C1CCC(N2Cc3cc(C4CCN(Cc5cccc(C(=O)Nc6ccccn6)c5)CC4)ccc3C2=O)C(=O)N1 (centres unmarked) [Compound 156]	50 to 70	< 10
N#Cc1ccccc1N1Cc2ccc(CN3CCC(c4ccc5c(c4)CN(C4CCC(=O)NC4=O)C5=O)CC3)cc2C1=O (centres unmarked) [Compound 179]	50 to 70	< 10
O=C1CCC(N2Cc3cc(C4(O)CCN(Cc5ccc6c(c5)CCO6)CC4)ccc3C2=O)C(=O)N1 (centres unmarked) [Compound 246]	> 70	< 10
N#CC1(COc2ccccc2CN2CCC(O)(c3ccc4c(c3)CN(C3CCC(=O)NC3=O)C4=O)CC2)CC1 (centres unmarked) [Compound 209]	50 to 70	10 to 30
O=C1CCC(N2Cc3cc(C4(O)CCN(Cc5cccc(F)c5Cl)CC4)ccc3C2=O)C(=O)N1 (centres unmarked) [Compound 254]	> 70	< 10
O=C1CCC(N2Cc3cc(C4(O)CCN(Cc5ccc(F)c(F)c5)CC4)ccc3C2=O)C(=O)N1 (centres unmarked) [Compound 244]	> 70	< 10
O=C1CCC(N2Cc3cc(C4(O)CCN(Cc5cccnc5Oc5ccccc5)CC4)ccc3C2=O)C(=O)N1 (centres unmarked) [Compound 195]	50 to 70	< 10

Compound	Dmax [%]	DC50 [nM]
O=C1CCC(N2Cc3cc(C4(O)CCN(Cc5cccc(OC(F)F)c5)CC4)ccc3C2=O)C(=O)N1 (centres unmarked) [Compound 208]	> 70	< 10
O=C1CCC(N2Cc3cc(C4CCN(Cc5ccc(S(=O)(=O)N6CCc7ccccc76)cc5)CC4)ccc3C2=O)C(=O)N1 (centres unmarked) [Compound 167]	50 to 70	< 10
CN(C(=O)c1ccccc1)c1ccc(CN2CCC(c3ccc4c(c3)CN(C3CCC(=O)NC3=O)C4=O)CC2)cc1 (centres unmarked) [Compound 170]	50 to 70	10 to 30
O=C1CCC(N2Cc3cc(C4(O)CCN(Cc5cccc(Cl)c5)CC4)ccc3C2=O)C(=O)N1 (centres unmarked) [Compound 207]	> 70	< 10
O=C1CCC(N2Cc3cc(C4CCN(Cc5cc6c(cn5)CN(c5ccccc5)C6=O)CC4)ccc3C2=O)C(=O)N1 (centres unmarked) [Compound 173]	50 to 70	10 to 30
O=C1CCC(N2Cc3cc(C4(O)CCN(Cc5cccc(-c6nccs6)c5)CC4)ccc3C2=O)C(=O)N1 (centres unmarked) [Compound 281]	> 70	< 10
O=C1CCC(N2Cc3cc(C4(O)CCN(Cc5ccnc(Nc6ccccc6)n5)CC4)ccc3C2=O)C(=O)N1 (centres unmarked) [Compound 196]	> 70	< 10
O=C1CCC(N2Cc3cc(C4(O)CCN(Cc5cccc(Oc6ccccc6)c5)CC4)ccc3C2=O)C(=O)N1 (centres unmarked) [Compound 193]	> 70	< 10
O=C1CCC(N2Cc3cc(C4(O)CCN(Cc5ccc(Oc6ccccc6)cc5)CC4)ccc3C2=O)C(=O)N1 (centres unmarked) [Compound 253]	50 to 70	< 10
O=C1CCC(N2Cc3cc(C4CCN(Cc5ccc6c(c5)C(=O)N(c5ccccc5)CC6)CC4)ccc3C2=O)C(=O)N1 (centres unmarked) [Compound 105, 3-(1-oxo-5-(1-((1-oxo-2-phenyl-1,2,3,4-tetrahydroisoquinolin-7-yl)methyl)piperidin-4-yl)isoindolin-2-yl)piperidine-2,6-dione]	50 to 70	< 10
O=C1CCC(N2Cc3cc(C4(O)CCN(Cc5c(F)cccc5F)CC4)ccc3C2=O)C(=O)N1 (centres unmarked) [Compound 245]	50 to 70	< 10
O=C1CCC(N2Cc3cc(C4CCN(Cc5cccc(Nc6ccsn6)c5)CC4)ccc3C2=O)C(=O)N1 (centres unmarked) [Compound 233]	50 to 70	10 to 30
O=C1CCC(N2Cc3cc(C4(O)CCN(Cc5ccc6c(c5)C(=O)N(c5ccccn5)C6)CC4)ccc3C2=O)C(=O)N1 (centres unmarked) [Compound 220]	> 70	< 10
O=C1CCC(N2Cc3cc(C4CCN(Cc5cnc(Nc6ccccc6)s5)CC4)ccc3C2=O)C(=O)N1 (centres unmarked) [Compound 148]	50 to 70	10 to 30
O=C1CCC(N2Cc3cc(C4CCN(Cc5cccc(Nc6ccc(F)cn6)c5)CC4)ccc3C2=O)C(=O)N1 (centres unmarked) [Compound 132]	50 to 70	< 10
O=C1CCC(N2Cc3cc(C4(O)CCN(Cc5ccc6ccccc6c5)CC4)ccc3C2=O)C(=O)N1 (centres unmarked) [Compound 203]	> 70	< 10
